Tests used:
Type in all cases: cell-based
GAK = target: T1, GAK (Homo sapiens, UniProt O14976); settings: live cell, K10 tracer
T1 construct: host or cells: HEK293
T1 sequence (O14976 1-1311): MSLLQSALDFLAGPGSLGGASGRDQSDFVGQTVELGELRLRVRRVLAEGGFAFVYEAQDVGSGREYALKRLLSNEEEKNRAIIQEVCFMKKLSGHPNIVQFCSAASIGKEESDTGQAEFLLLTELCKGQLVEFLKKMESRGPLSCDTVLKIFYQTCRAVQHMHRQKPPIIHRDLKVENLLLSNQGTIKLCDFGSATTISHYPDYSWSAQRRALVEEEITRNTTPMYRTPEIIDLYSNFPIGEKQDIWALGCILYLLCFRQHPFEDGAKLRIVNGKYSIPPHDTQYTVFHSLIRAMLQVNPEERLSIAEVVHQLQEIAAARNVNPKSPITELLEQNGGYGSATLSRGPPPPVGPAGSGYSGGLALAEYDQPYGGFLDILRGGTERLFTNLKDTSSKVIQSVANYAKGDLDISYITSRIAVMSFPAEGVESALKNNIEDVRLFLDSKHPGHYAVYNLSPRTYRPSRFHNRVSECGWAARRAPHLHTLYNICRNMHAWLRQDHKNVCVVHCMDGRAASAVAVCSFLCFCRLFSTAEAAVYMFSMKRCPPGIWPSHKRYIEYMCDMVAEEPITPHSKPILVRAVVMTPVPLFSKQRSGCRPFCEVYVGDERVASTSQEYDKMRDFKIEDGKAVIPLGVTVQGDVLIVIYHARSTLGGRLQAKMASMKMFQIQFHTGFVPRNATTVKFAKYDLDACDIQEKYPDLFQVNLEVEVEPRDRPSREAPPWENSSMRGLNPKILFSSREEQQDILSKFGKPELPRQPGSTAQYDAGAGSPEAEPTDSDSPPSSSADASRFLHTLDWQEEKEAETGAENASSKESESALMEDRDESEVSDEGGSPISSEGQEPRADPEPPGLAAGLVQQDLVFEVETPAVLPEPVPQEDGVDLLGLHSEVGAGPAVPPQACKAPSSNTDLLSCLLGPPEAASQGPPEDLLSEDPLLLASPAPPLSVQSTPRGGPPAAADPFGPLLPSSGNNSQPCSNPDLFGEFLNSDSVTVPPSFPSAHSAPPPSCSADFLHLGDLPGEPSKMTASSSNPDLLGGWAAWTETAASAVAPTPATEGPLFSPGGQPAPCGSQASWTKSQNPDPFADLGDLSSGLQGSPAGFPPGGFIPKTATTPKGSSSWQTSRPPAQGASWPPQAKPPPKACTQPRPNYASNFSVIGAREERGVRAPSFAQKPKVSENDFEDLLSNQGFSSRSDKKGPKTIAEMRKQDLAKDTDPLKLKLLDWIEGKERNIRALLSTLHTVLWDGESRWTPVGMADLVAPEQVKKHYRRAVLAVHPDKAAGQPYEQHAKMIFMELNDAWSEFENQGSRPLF

MAP3K4 = target: T2, MAP3K4 (Homo sapiens, UniProt Q9Y6R4); settings: live cell, K10 tracer
T2 construct: host or cells: HEK293

WEE1 = target: T3, WEE1 (Homo sapiens, UniProt P30291); settings: live cell, K10 tracer
T3 construct: host or cells: HEK293

human PLK1 (NLuc-PLK1) = target: T4, human PLK1 (NLuc-PLK1) (Homo sapiens, UniProt P53350); experiment: PLK1 NanoBRET target engagement assay (NLuc-PLK1, N-terminal fusion) in live HEK293 cells; settings: probe 11; at least three technical replicates; read-out: PLK1 NanoBRET IC50 (dose response, Figure 3a)
T4 construct: plasmid DNAs encoding N- and C-terminal fusions of full-length PLK1 with NLuc; host or cells: HEK293
Method: HEK293 cells (ATCC) were cultured in DMEM (Gibco) + 10% FBS (Seradigm) with incubation in a humidified 37 °C/5% CO2 incubator. N- or C-terminal NLuc/PLK fusions were encoded in pFN31K expression vectors (Promega), including flexible Gly-Ser-Ser-Gly linkers between NLuc and ORFs corresponding to UniProt isoform 1 (PLK1: P53350-1, PLK2: Q9NYY3-1, and PLK3: Q9H4B4-1). Carrier DNA was encoded in pGEM-3Z vectors (Promega). For cellular BRET target engagement experiments, HEK293 cells were transfected with NLuc/PLK fusion constructs using FuGENE HD (Promega) according to the manufacturer’s protocol. […] One part (vol) of FuGENE HD complexes thus formed was combined with 20 parts (vol) of HEK293 cells suspended at a density of 2 × 10^5 per mL, followed by incubation in a humidified 37 °C/5% CO2 incubator for 20 hr.
To test BRET probes 10 and 11 against PLK1, HEK293 adherent cells were incubated with either NLuc fused to the N-terminus of PLK1 (NLuc-PLK1) or the C-terminus of PLK1 (PLK1-NLuc) using 1 µM of the BRET probe, and mBRET units were measured. […] NLuc-PLK2 and NLuc-PLK3 were tested with both probes 10 and 11 using the same protocol.
To estimate the half-maximal effective concentration (EC50) of probe 11 to PLK1 in cells, adherent HEK293 cells in a 96-well plate expressing the NLuc-PLK1 fusion protein were mixed with an increasing concentration of BRET probe 11. The resulting BRET ratio was fitted to the sigmoidal 4-parameter dose–response curve using Prism 9.0 (GraphPad, Boston MA, USA).

TNNI3K = target: T5, TNNI3K (Homo sapiens, UniProt Q59H18); settings: live cell, K10 tracer
T5 construct: host or cells: HEK293
T5 sequence (Q59H18 1-835): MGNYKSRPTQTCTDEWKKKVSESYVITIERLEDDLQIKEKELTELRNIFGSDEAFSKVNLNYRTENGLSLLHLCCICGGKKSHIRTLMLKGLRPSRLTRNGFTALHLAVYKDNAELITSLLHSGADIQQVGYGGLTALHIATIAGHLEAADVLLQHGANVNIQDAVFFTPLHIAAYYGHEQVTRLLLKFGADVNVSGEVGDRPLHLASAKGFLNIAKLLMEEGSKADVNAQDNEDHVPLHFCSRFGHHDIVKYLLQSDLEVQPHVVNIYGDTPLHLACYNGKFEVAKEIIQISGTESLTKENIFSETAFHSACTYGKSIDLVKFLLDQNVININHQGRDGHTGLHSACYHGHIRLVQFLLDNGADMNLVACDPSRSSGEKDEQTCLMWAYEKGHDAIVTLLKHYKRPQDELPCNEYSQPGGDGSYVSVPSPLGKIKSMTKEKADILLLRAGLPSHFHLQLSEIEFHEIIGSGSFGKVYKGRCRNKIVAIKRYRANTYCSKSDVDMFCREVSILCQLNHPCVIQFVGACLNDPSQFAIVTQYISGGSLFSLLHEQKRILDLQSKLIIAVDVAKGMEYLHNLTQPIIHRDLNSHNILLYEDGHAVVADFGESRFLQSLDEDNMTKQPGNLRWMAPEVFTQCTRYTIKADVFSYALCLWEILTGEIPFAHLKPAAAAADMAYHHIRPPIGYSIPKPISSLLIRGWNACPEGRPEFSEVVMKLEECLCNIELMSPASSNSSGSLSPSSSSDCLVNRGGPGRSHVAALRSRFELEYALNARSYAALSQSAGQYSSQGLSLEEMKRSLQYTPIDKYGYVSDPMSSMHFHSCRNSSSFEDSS

PLK3 = target: T6, PLK3 (Homo sapiens, UniProt Q9H4B4); settings: live cell, K10 tracer
T6 construct: host or cells: HEK293

WEE2 = target: T7, WEE2 (Homo sapiens, UniProt P0C1S8); settings: live cell, K10 tracer
T7 construct: host or cells: HEK293

PLK2 = target: T8, PLK2 (Homo sapiens, UniProt Q9NYY3); settings: live cell, K10 tracer
T8 construct: host or cells: HEK293
T8 sequence (Q9NYY3 whole entry): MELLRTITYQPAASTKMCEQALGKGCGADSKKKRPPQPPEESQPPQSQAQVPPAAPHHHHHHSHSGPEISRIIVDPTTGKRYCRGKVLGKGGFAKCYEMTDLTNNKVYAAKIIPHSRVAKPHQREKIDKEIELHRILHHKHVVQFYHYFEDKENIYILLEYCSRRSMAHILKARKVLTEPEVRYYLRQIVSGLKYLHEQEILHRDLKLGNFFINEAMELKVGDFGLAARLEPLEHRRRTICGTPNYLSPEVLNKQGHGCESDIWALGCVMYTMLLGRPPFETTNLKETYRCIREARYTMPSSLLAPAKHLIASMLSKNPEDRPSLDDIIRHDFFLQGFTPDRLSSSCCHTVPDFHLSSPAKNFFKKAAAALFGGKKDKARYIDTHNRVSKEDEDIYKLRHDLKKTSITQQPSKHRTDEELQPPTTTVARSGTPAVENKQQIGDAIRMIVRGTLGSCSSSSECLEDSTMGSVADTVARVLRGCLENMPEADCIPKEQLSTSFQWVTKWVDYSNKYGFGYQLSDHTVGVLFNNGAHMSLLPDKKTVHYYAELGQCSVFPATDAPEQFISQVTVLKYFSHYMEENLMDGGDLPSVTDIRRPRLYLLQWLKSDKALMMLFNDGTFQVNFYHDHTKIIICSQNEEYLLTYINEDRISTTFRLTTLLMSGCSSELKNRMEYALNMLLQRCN

T4 sequence (P53350 whole entry, the tested form may be a part): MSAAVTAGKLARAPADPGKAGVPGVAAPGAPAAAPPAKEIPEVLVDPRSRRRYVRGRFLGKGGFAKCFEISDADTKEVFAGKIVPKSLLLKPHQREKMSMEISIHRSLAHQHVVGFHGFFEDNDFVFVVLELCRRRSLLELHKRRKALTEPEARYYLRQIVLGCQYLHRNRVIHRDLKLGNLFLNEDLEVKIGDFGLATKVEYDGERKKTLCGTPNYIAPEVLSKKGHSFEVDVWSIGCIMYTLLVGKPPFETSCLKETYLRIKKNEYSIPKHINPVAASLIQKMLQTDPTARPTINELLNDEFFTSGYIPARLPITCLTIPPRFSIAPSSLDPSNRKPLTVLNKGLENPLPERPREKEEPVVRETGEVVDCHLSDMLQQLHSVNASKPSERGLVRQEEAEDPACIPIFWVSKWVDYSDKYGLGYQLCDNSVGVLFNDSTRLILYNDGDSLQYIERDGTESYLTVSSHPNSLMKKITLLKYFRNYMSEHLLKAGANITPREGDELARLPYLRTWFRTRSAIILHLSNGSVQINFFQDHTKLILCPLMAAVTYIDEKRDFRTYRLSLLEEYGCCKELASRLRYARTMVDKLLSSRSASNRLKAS
T2 sequence (Q9Y6R4 whole entry): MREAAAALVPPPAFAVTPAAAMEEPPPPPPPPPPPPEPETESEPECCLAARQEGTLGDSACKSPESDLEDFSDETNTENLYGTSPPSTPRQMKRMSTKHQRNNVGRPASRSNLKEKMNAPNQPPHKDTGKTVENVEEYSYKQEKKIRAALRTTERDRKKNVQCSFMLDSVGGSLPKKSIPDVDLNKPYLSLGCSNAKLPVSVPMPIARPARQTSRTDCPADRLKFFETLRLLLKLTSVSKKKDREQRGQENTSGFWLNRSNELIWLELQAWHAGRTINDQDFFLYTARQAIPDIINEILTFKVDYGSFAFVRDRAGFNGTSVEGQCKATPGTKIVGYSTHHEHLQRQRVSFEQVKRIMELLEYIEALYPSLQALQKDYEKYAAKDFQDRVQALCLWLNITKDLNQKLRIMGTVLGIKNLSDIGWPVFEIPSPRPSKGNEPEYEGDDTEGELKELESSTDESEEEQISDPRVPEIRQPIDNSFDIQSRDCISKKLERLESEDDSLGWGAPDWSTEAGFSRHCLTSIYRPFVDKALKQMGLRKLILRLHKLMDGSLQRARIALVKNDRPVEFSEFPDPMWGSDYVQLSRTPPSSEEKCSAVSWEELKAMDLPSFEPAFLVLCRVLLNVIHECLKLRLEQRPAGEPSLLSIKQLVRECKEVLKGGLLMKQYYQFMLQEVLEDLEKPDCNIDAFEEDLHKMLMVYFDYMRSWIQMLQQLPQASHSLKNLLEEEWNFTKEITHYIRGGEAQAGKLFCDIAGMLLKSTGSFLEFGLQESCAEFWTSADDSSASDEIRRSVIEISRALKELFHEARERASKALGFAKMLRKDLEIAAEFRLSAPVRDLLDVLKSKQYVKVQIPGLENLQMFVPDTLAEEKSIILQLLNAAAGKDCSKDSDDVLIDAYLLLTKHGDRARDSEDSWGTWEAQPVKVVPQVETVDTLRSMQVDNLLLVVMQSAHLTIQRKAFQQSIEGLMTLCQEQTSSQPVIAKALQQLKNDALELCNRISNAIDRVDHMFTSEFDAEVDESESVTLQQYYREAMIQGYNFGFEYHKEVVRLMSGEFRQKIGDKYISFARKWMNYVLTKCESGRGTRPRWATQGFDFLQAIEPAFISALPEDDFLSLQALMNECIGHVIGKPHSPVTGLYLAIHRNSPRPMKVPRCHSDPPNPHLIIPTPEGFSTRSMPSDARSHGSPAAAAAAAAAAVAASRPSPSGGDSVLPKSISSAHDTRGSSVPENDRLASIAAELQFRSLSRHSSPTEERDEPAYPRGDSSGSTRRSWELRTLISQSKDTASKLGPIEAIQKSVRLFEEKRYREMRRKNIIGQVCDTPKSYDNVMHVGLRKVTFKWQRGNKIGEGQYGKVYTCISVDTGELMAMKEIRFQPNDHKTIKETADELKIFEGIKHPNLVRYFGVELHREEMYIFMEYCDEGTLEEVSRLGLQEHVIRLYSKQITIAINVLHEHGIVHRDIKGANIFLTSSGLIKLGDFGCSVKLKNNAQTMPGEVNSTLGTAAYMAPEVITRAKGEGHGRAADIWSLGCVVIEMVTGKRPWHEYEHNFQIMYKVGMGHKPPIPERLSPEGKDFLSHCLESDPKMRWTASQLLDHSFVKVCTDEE
T7 sequence (P0C1S8 whole entry): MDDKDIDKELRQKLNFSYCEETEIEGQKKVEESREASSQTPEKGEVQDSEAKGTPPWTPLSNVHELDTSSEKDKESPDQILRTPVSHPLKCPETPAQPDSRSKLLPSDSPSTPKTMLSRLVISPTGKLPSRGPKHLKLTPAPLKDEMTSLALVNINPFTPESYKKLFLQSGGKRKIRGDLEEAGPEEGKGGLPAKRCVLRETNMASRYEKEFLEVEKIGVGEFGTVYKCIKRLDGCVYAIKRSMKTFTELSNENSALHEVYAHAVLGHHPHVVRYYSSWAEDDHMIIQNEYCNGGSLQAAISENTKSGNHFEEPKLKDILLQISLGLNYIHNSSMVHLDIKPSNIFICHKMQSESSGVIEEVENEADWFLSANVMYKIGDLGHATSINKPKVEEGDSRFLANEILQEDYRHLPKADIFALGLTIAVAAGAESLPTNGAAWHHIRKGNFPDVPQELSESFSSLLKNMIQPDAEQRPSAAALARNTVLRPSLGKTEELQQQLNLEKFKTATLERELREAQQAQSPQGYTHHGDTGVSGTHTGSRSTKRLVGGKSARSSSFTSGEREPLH
T3 sequence (P30291 whole entry): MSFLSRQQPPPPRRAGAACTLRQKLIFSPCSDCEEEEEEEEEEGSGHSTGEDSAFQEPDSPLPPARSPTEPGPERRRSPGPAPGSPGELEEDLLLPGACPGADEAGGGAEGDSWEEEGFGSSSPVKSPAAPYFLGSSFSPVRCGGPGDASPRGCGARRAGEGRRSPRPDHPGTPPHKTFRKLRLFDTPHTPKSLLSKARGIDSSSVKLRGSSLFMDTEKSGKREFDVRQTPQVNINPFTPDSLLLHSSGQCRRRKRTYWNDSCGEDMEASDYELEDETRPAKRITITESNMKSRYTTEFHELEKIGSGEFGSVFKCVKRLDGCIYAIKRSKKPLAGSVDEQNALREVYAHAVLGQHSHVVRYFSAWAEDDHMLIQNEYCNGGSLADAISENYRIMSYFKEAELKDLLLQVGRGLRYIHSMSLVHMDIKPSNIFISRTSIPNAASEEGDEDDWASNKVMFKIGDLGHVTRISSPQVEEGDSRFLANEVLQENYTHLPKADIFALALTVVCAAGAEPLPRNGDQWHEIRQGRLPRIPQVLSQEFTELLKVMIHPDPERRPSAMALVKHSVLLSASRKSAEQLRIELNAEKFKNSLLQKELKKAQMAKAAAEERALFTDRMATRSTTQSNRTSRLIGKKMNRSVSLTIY
T6 sequence (Q9H4B4 whole entry): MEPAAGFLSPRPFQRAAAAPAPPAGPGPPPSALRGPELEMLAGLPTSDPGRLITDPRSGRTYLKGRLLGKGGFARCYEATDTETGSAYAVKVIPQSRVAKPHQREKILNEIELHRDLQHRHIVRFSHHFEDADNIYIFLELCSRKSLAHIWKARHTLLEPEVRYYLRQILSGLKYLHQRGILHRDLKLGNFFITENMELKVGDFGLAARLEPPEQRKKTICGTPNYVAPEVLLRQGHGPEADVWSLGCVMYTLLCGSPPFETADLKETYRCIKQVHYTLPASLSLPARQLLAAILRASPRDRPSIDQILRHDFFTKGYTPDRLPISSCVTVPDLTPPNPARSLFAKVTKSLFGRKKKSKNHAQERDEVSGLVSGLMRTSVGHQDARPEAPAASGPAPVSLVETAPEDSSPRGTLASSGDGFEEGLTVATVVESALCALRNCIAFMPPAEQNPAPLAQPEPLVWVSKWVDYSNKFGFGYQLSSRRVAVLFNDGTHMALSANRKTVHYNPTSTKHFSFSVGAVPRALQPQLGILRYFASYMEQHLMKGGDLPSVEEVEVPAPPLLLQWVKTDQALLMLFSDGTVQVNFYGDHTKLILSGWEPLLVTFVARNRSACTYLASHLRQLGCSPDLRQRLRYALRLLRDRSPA

receptor occupancy at 1 µM (GAK): 63% | receptor occupancy at 1 µM (MAP3K4): 67% | receptor occupancy at 1 µM (WEE1): 95% | IC50 (human PLK1 (NLuc-PLK1)): > 1000 nM | receptor occupancy at 1 µM (TNNI3K): 70% | receptor occupancy at 1 µM (PLK3): 53% | receptor occupancy at 1 µM (WEE2): 59% | receptor occupancy at 1 µM (PLK2): 95%
Compound: C=CCn1c(=O)c2cnc(Nc3ccc(N4CCN(C)CC4)cc3)nc2n1-c1cccc(C(C)(C)O)n1 [adavosertib]
